The source made the active and inactive calls.
What was measured:
[1] = biological target: T1, Probable nicotinate-nucleotide adenylyltransferase (Staphylococcus aureus (strain N315), UniProt P65502); type: functional, Staphylococcus aureus subsp. aureus N315;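 for IC50 Mean: confirmatory dose-response retesting of NadD inhibitor hits first found in an ultra-high-throughput screen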
[2] = biological target: T1, Probable nicotinate-nucleotide adenylyltransferase; type: functional, Staphylococcus aureus subsp. aureus N315; conditions: read-out: IC50_Mean
[3] = biological target: T2, Oxysterols receptor LXR-beta (Homo sapiens, UniProt P55055); type: functional, cell-based;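 note: agonist activity at LXR measured by a cell-based luminescence readout across a dose range, run as a counterscreen for daf-12 agonists; HEK293 cells with Gal4-LXR fusion and GAL4-driven luciferase reporter; potency for activation of Gal4-LXR reporter so compounds are agonists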
T2 sequence (P55055 whole entry): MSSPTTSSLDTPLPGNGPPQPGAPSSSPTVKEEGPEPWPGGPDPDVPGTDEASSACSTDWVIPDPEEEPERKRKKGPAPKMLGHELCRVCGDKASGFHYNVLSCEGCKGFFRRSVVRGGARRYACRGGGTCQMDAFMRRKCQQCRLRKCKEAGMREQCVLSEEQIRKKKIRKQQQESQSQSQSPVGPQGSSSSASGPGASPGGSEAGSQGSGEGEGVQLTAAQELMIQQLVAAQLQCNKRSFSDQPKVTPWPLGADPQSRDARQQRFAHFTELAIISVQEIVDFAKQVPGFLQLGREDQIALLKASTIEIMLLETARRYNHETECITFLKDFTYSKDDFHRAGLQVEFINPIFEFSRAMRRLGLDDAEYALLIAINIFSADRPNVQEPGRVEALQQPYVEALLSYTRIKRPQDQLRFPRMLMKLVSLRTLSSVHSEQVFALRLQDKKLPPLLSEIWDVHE

Nonstructural protein 1 = Nonstructural protein 1 (Influenza A virus, UniProt Q194T2); type: functional, Influenza A virus (A/California/07/2009(H1N1))
Chain of Nonstructural protein 1 (Q194T2 whole entry): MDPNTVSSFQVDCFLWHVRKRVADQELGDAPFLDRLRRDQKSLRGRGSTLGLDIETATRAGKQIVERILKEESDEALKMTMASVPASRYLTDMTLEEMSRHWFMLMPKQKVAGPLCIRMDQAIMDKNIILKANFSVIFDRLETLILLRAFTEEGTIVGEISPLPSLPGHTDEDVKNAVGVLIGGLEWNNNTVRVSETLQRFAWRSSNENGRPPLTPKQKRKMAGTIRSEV

[4] = biological target: T3, Methionyl-tRNA synthetase, putative (Trypanosoma brucei brucei, UniProt Q38C91); type: functional, Trypanosoma brucei brucei strain 927/4 GUTat10.1
T3 sequence (Q38C91 whole entry): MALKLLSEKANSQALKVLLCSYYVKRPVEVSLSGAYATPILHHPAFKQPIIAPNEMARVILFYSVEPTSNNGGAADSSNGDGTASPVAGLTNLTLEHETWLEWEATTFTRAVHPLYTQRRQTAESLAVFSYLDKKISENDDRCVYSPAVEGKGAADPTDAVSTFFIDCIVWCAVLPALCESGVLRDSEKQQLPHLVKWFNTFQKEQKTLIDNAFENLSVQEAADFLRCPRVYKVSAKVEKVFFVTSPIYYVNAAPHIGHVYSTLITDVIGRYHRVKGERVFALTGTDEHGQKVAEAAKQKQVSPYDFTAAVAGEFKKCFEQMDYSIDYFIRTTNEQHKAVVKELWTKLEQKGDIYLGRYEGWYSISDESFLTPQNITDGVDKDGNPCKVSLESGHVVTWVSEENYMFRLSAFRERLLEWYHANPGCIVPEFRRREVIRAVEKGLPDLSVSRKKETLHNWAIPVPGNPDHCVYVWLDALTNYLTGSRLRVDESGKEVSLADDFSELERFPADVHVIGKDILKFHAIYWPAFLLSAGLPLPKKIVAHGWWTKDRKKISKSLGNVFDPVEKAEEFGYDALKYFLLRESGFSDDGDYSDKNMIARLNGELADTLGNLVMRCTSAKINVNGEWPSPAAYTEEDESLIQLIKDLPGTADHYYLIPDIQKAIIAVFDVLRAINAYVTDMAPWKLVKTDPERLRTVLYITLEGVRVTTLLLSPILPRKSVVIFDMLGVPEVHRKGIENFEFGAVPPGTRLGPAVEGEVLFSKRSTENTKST

[5] = Counterscreen for inhibitors of Trypanosoma brucei methionyl tRNA synthetase (MetRS): Luminescence-based cell-based high throughput dose response assay to identify compounds that are cytotoxic to Jurkat human T lymphocyte cells.; type: functional
[6] = biological target: T4, Short transient receptor potential channel 4 (Mus musculus, UniProt Q9QUQ5); experiment: calcium entry via TRPC4 opening agents – cell-based, HEK293 TRPC4/mu-opioid, Fluo-4 calcium, dose response (AID 434937); type: functional
T4 sequence (Q9QUQ5 whole entry): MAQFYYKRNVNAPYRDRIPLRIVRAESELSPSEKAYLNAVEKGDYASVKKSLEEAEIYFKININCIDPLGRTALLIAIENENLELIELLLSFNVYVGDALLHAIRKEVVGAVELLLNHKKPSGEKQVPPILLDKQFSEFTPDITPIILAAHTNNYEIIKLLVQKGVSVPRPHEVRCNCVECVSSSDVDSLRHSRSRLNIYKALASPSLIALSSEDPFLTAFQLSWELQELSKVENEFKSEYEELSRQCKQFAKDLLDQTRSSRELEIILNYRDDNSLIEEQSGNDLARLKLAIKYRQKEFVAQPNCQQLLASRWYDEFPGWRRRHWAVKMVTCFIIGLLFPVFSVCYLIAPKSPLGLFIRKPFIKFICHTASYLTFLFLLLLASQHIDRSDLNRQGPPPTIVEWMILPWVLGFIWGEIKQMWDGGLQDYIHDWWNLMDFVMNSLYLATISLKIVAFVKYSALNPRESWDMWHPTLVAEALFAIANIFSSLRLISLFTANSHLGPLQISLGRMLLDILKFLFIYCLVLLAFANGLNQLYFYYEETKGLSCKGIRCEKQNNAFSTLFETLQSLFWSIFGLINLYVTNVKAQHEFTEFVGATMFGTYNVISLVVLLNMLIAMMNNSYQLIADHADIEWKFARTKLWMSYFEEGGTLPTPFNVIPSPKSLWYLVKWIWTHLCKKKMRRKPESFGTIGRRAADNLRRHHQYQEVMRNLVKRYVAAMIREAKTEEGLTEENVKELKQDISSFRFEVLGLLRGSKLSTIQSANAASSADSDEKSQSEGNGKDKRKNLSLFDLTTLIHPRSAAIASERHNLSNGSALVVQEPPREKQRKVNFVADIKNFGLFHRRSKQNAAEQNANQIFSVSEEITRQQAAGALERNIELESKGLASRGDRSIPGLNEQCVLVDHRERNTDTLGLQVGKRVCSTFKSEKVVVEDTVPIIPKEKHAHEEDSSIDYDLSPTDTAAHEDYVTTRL

[7] = HGIII-sPLA2 enzyme inhibition potency – biochemical, QFRET, IC50, dose response (AID 743457);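 note: green fluorescence rise as the enzyme cleaves BODIPY PC-A2 in liposomes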
[8] = Trypanosoma cruzi growth suppression in host cells – NIH3T3 host cells, beta-gal luminescence, confirmation (AID 2044); type: functional, cell-based;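 note: intracellular parasites grown in NIH/3T3 mouse fibroblasts as host cells; luminescent beta-galactosidase reporter signal from transgenic T. cruzi replicating inside host cells; inhibitors lower the luminescence signal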
[9] = biological target: T3, Methionyl-tRNA synthetase, putative; type: functional, Trypanosoma brucei brucei strain 927/4 GUTat10.1; remark: listed apart in the source
[10] = NIH3T3 cell viability loss – ATP luminescence, mouse fibroblasts, counter-screen, dose response (AID 2010); type: functional, cell-based;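 note: cells exposed to compound for about 90 hours before reading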
[11] = biological target: 5-hydroxytryptamine receptor 2A (Mus musculus, UniProt P35363); type: functional, cell-based;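 note: CHO-K1 cells with tagged receptor and beta-arrestin; agonist potency measured as compound-induced activation of the receptor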
Chain of 5-hydroxytryptamine receptor 2A (P35363 whole entry): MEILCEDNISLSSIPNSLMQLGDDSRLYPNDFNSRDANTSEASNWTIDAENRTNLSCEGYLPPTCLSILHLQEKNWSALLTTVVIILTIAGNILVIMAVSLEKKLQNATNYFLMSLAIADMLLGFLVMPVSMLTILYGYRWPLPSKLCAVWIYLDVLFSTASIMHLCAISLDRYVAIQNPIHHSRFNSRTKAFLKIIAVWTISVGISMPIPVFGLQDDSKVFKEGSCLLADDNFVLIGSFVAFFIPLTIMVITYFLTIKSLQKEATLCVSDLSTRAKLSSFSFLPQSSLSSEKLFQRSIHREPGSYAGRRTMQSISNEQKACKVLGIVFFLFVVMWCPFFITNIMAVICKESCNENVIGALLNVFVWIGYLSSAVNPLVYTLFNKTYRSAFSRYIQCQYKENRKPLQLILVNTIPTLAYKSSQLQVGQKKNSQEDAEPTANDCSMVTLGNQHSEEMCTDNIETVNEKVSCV

Mu-type opioid receptor = Mu-type opioid receptor (Homo sapiens, UniProt P35372); type: functional, cell-based;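 note: U2OS cells with beta-arrestin recruitment to OPRM1 by beta-gal complementation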
Chain of Mu-type opioid receptor (P35372 whole entry): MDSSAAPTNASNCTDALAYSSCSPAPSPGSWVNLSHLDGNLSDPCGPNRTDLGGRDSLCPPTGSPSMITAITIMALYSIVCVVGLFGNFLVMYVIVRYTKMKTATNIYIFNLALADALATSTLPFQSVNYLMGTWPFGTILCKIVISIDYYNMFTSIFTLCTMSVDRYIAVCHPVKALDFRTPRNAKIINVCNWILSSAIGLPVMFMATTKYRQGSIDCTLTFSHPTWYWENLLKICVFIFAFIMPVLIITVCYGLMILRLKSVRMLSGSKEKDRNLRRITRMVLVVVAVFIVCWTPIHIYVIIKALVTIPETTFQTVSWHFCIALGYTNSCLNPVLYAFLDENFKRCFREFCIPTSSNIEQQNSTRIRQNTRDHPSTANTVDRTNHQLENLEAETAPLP

[12] = biological target: T5, DNA repair protein RAD52 homolog (Homo sapiens, UniProt P43351); type: functional, biochemical
T5 sequence (P43351 whole entry): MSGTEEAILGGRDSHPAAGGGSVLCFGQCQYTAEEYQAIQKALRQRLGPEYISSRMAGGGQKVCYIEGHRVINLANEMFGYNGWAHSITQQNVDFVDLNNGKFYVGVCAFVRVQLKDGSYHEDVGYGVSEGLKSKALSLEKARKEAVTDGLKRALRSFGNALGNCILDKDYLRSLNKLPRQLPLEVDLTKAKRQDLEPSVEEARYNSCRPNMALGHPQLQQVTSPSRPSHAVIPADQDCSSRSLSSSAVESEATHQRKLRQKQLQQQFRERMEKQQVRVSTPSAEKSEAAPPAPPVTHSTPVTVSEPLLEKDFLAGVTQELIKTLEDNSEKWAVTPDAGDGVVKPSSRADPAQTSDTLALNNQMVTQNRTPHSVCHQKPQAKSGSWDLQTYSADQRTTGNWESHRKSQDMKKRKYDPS

[13] = Luminescence Cell-Based Dose Response HTS to Identify Activators of Luciferase Translation or Activity in H4 […] Cells. [Related pubchem assays: 1829 (Project Summary), 1814 (Primary HTS)]; type: functional
[14] = microbe, parasite or virus in culture; type: functional; conditions: Mycobacterium tuberculosis
[15] = Luminescence Cell-Based Dose Confirmation HTS to Identify Activators of 5'UTR Stem-Loop Driven Alpha-Synuclein mRNA Translation in H4 Neuroglioblastoma Cells. [Related pubchem assays: 1829 (Project Summary), 1814 (Primary HTS)]; type: functional
[16] = biological target: T6, DNA repair and recombination protein RAD54-like (Homo sapiens, UniProt Q92698); experiment: RAD54 Holliday junction migration blockers – biochemical, fluorescence, cherry-picked samples, dose series, confirmation (AID 651657); type: functional
T6 sequence (Q92698 whole entry): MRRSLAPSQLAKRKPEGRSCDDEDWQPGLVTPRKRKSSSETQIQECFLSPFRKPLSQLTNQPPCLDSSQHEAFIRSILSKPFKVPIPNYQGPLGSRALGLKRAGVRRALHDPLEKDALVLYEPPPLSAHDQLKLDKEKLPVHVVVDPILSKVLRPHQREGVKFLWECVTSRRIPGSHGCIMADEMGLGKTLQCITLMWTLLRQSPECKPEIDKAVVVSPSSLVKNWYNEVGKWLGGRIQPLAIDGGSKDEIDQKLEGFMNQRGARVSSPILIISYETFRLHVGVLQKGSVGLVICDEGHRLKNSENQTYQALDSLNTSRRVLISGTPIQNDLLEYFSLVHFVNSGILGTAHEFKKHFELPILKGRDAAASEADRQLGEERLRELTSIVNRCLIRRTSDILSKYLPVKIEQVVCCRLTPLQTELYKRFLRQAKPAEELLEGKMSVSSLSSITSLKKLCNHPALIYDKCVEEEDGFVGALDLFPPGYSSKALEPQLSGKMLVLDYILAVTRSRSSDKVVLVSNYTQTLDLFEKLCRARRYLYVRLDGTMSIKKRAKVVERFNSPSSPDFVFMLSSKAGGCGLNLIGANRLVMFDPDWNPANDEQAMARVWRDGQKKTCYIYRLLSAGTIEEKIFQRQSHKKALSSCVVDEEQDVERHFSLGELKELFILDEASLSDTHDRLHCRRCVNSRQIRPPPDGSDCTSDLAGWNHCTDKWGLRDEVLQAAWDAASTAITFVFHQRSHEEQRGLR

[17] = cytotoxicity toward MDA-MB-231 breast cancer cells – cell-based, CellTiter-Glo luminescence, cherry-pick, cytotoxicity control for RAD54 inhibitor project, dose response (AID 651692); type: functional
H4 = experiment: Luminescence Cell-Based Dose Response HTS to Identify Activators of 5'UTR Stem-Loop Driven Prion Protein mRNA Translation in H4 Neuroglioblastoma Cells. [Related pubchem assays: 1829 (Project Summary), 1814 (Primary HTS)]; type: functional; conditions: Homo sapiens
[18] = HepG2 cell cytotoxicity, dose response, cytotoxicity control for non-replicating M. tuberculosis project (AID 489018); type: functional; conditions: Mycobacterium tuberculosis
[19] = Luminescence Cell-Based Dose Retest to Confirm Inhibitors of Cancer Stem Cells. [Related pubchem assays (depositor defined):AID2717, AID2721]; type: functional; conditions: Homo sapiens
cells = type: functional
[20] = Vero E6 cell cytotoxicity, dose response, cytotoxicity control for non-replicating M. tuberculosis project, secondary assay (AID 492998); type: functional, VeroE6; conditions: Vero C1008
[21] = THP-1 cell cytotoxicity, dose response, cytotoxicity control for non-replicating M. tuberculosis project (AID 489025); type: functional

T1 sequence (P65502 whole entry): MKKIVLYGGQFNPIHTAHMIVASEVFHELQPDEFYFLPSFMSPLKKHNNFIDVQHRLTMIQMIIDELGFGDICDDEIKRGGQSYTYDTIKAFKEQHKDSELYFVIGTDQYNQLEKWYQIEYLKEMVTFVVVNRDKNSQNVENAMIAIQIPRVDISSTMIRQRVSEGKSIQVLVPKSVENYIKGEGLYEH

## Cc1cc(C)cc(NC(=O)C(OC(=O)c2ccc(NC(=O)CC#N)cc2)c2ccccc2)c1 (stereo not drawn)
[1]
  IC50: 14.6 µM (active)
[2]
  IC50: 22.3 µM (active)

## c1ccc(CSc2ccc(-c3ccccn3)nn2)nc1
[3]
  EC50: > 67.5 µM (inactive)
Nonstructural protein 1
  IC50: 4.94 µM (active)

## Cc1cc2c(c(=O)n1CC1CCCO1)C(c1ccc3c(c1)OCO3)C(C#N)=C(N)O2 (stereo not drawn)
[4]
  IC50: 119 µM (inactive)
[5]
  IC50: 83.3 µM (inactive)

## COc1ccc(C(=O)NC(=S)NNC(=O)c2c(-c3ccccc3)noc2C)cc1
[6]
  EC50: 3.76 µM (active)
[7]
  IC50: 24.2 µM (inactive)

## O=C1NC[C@H](Cc2ccccc2)N(C[C@@H]2CCCN2C[C@H](Cc2ccccc2)N2C[C@H](Cc3ccc(O)cc3)N(CCc3ccccc3)C(=O)C2=O)C1=O
[1]
  IC50: 6.91 µM (active)
[2]
  IC50: 30.8 µM (active)

## Cc1ccc(-c2cc(-c3ccc(C)o3)nc(N)c2C#N)cc1
[1]
  IC50: 1.62 µM (active)
[2]
  IC50: 2.43 µM (active)

## O=C1[C@@H]2Cc3c([nH]c4ccccc34)C(c3cccc([N+](=O)[O-])c3)N2C(=O)CN1C1CCN(Cc2ccccc2)CC1 (stereo partly drawn)
[4]
  IC50: 1.82 µM (active)
[8]
  EC50: 1.8 µM (active)
[9]
  IC50: 3.18 µM (active)
[5]
  IC50: 27.1 µM (inactive)
[10]
  EC50: 9.77 µM (active)

## COc1cccc2c1cc1c(=O)n(CC(=O)N3CCC(C)CC3)nc(C)n12
[11]
  EC50: 13.6 µM (inactive)
Mu-type opioid receptor
  EC50: 92.5 µM (inactive)

## Cc1ccc(C(=O)c2oc3ccc(Cl)cc3c2NC(=O)CN2CCN(C)CC2)cc1
[12]
  AC50: 5.97 µM (active)
[13]
  EC50: > 120 µM (not active)
[14]
  CC50: 14.2 µM (active)
[15]
  EC50: > 120 µM (not active)
[16]
  AC50: 11.8 µM (active)
[17]
  AC50: 11.5 µM (active)
H4
  EC50: > 120 µM (not active)

## CCCN(CCC)CCNC(=O)c1cc2c(-c3ccc(Cl)cc3)nn(C)c2s1
[12]
  AC50: 14.5 µM (active)
[18]
  CC50: 11.8 µM (active)
[19]
  AC50: 3.81 µM (active)
[14]
  CC50: 15.1 µM (active)
[16]
  AC50: 20.9 µM (active)
[11]
  EC50: 6.58 µM (active)
cells
  IC50: 15.5 µM (active)
Mu-type opioid receptor
  EC50: 92.5 µM (inactive)
[20]
  CC50: 16.6 µM (active)
[17]
  AC50: 37.1 µM (active)
[21]
  CC50: 31.6 µM (active)

## Clc1ccccc1Nc1nc2ccccc2o1
[3]
  EC50: > 67.6 µM (inactive)
